{"source": "patent US9168259B2", "about": "(GRÜNENTHAL GMBH, priority 2010, dated 2015)", "biological_target": "T1, KCNQ2/3 channels (Homo sapiens, UniProt O43525+O43526)", "T1 construct": "expressed in transfected cells", "T1 sequence (O43526 whole entry)": "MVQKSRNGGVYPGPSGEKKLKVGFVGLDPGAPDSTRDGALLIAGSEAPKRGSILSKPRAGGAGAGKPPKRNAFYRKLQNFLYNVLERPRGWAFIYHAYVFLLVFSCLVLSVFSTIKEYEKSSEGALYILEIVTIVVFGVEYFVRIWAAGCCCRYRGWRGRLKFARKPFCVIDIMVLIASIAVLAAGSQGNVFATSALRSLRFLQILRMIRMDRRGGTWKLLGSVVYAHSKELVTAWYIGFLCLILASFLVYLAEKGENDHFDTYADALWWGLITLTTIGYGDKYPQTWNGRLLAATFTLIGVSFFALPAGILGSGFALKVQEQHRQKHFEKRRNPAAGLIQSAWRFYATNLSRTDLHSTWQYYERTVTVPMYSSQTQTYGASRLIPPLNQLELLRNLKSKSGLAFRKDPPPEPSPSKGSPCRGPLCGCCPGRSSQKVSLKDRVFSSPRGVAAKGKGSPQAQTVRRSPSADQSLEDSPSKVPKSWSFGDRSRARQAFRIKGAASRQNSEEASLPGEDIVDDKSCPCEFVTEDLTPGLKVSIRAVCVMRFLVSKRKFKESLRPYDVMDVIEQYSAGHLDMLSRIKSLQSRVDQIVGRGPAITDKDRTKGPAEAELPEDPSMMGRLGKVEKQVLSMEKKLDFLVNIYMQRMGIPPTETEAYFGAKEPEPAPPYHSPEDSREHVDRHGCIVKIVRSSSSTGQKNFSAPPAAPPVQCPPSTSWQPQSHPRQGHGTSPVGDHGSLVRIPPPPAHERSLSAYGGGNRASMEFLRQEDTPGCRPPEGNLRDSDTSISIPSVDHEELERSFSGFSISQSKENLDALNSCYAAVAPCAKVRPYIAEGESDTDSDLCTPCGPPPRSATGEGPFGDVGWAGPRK", "T1 sequence (O43525 whole entry)": "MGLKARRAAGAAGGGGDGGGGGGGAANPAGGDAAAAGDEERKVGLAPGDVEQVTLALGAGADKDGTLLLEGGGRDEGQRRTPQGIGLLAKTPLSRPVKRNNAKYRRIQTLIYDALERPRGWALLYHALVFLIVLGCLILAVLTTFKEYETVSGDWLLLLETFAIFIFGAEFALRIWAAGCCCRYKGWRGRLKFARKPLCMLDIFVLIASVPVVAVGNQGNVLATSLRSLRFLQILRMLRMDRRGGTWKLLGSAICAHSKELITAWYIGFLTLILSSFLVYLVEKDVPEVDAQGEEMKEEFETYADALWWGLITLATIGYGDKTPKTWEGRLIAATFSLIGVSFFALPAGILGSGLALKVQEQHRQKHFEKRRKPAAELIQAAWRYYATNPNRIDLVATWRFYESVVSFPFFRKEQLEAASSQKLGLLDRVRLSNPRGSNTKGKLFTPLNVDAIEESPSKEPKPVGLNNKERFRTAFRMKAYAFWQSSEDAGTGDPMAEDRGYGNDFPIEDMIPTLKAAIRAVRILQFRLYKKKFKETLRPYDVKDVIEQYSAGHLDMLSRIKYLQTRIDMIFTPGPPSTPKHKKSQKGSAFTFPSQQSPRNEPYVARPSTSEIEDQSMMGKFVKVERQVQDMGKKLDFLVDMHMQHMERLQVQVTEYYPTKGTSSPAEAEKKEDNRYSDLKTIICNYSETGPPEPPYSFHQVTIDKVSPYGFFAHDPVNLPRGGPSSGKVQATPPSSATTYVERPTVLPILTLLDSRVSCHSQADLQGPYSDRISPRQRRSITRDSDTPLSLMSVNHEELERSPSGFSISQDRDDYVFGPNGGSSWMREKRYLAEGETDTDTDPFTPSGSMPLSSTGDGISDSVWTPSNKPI", "experiment": "Fluorescence assay using a voltage sensitive dye (fluorimetry)", "format": "cell-based", "settings": "CHO-K1 cells expressing KCNQ2/3; for Emax: CHO-K1, plateau effect relative to saturated retigabine (50 μM) = 100%, negative values = antagonistic, read-out: Fluorimetry % efficacy (retigabine = 100%); for EC50: IC50 where % efficacy is negative, read-out: Fluorimetry EC50/IC50", "data": [{"compound": "COc1nc(N2CCOC[C@H]2C)cc(C)c1C(=O)NCc1ccc(F)c(F)c1", "note": "[Example 226, N-[(3,4-Difluoro-phenyl)-methyl]-2-methoxy-4-methyl-6-[(3R)-3-methyl-morpholin-4-yl]-pyridine-3-carboxylic acid amide]", "values": [{"measurement": "Emax", "value": 186, "unit": "%"}, {"measurement": "EC50", "value": 129, "unit": "nM"}]}, {"compound": "Cc1cc(N2CCOCC2)nc(C(C)(C)C)c1C(=O)NCCCC(C)(C)C", "note": "[Example 220, 2-tert-Butyl-N-(4,4-dimethyl-pentyl)-4-methyl-6-morpholin-4-yl-pyridine-3-carboxylic acid amide]", "values": [{"measurement": "Emax", "value": 166, "unit": "%"}, {"measurement": "EC50", "value": 682, "unit": "nM"}]}, {"compound": "Cc1cc(N2CCOCC2)nc(C(C)C)c1C(=O)NCc1ccc(F)cc1", "note": "[Example 309, N-[(4-Fluorophenyl)-methyl]-2-isopropyl-4-methyl-6-morpholin-4-yl-pyridine-3-carboxylic acid amide]", "values": [{"measurement": "Emax", "value": 168, "unit": "%"}, {"measurement": "EC50", "value": 71, "unit": "nM"}]}, {"compound": "CCSc1nc(N(C)C2CCCOC2)cc(C)c1C(=O)NCCCC(C)(C)C", "note": "(stereo not shown) [Example 280, N-(4,4-Dimethyl-pentyl)-2-ethylsulfanyl-4-methyl-6-(methyl-tetrahydro-pyran-3-yl-amino)-pyridine-3-carboxylic acid amide]", "values": [{"measurement": "Emax", "value": 165, "unit": "%"}, {"measurement": "EC50", "value": 302, "unit": "nM"}]}, {"compound": "CCCOc1nc(N2CCOCC2)cc(C)c1C(=O)NCc1cccc(F)c1", "note": "[Example 111, N-[(3-Fluorophenyl)-methyl]-4-methyl-6-morpholin-4-yl-2-propoxy-pyridine-3-carboxylic acid amide]", "values": [{"measurement": "Emax", "value": 153, "unit": "%"}, {"measurement": "EC50", "value": 109, "unit": "nM"}]}, {"compound": "CCCc1nc(N2CCOCC2)cc(C)c1C(=O)NCc1cc(F)cc(F)c1", "note": "[Example 322, N-[(3,5-Difluoro-phenyl)-methyl]-4-methyl-6-morpholin-4-yl-2-propyl-pyridine-3-carboxylic acid amide]", "values": [{"measurement": "Emax", "value": 193, "unit": "%"}, {"measurement": "EC50", "value": 80, "unit": "nM"}]}, {"compound": "COc1nc(N2CCOC[C@H]2C)cc(C)c1C(=O)NCc1cccc(F)c1", "note": "[Example 214, N-[(3-Fluorophenyl)-methyl]-2-methoxy-4-methyl-6-[(3R)-3-methyl-morpholin-4-yl]-pyridine-3-carboxylic acid amide]", "values": [{"measurement": "Emax", "value": 194, "unit": "%"}, {"measurement": "EC50", "value": 224, "unit": "nM"}]}, {"compound": "CCSc1nc(N2CCOCC2)cc(C)c1C(=O)NCC(O)Cc1ccccc1", "note": "(stereo not shown) [Example 202, 2-Ethylsulfanyl-N-(2-hydroxy-3-phenyl-propyl)-4-methyl-6-morpholin-4-yl-pyridine-3-carboxylic acid amide]", "values": [{"measurement": "Emax", "value": 129, "unit": "%"}, {"measurement": "EC50", "value": 5990, "unit": "nM"}]}, {"compound": "COCCSc1nc(N2CCOCC2)cc(C)c1C(=O)NCCCC(C)(C)C", "note": "[Example 337, N-(4,4-Dimethyl-pentyl)-2-(2-methoxy-ethylsulfanyl)-4-methyl-6-morpholin-4-yl-pyridine-3-carboxylic acid amide]", "values": [{"measurement": "Emax", "value": 237, "unit": "%"}, {"measurement": "EC50", "value": 117, "unit": "nM"}]}, {"compound": "CCSc1nc(N2CCOCC2)cc(C)c1C(=O)NCCCc1ccccc1F", "note": "[Example 129, 2-Ethylsulfanyl-N-[3-(2-fluorophenyl)-propyl]-4-methyl-6-morpholin-4-yl-pyridine-3-carboxylic acid amide]", "values": [{"measurement": "Emax", "value": 206, "unit": "%"}, {"measurement": "EC50", "value": 221, "unit": "nM"}]}, {"compound": "CCCCSc1nc(N2CCOCC2)cc(C)c1C(=O)NCc1cccc(F)c1", "note": "[Example 57, 2-(Butylsulfanyl)-N-[(3-fluorophenyl)-methyl]-4-methyl-6-morpholin-4-yl-pyridine-3-carboxylic acid amide]", "values": [{"measurement": "Emax", "value": 169, "unit": "%"}, {"measurement": "EC50", "value": 47, "unit": "nM"}]}, {"compound": "CCN(C)c1nc(N2CCOCC2)cc(C)c1C(=O)NCc1cc(F)cc(F)c1", "note": "[Example 204, N-[(3,5-Difluoro-phenyl)-methyl]-2-(ethyl-methyl-amino)-4-methyl-6-morpholin-4-yl-pyridine-3-carboxylic acid amide]", "values": [{"measurement": "Emax", "value": 239, "unit": "%"}, {"measurement": "EC50", "value": 141, "unit": "nM"}]}, {"compound": "CCSc1nc(N(C)CCCOC)cc(C)c1C(=O)NCc1cccc(F)c1", "note": "[Example 128, 2-Ethylsulfanyl-N-[(3-fluorophenyl)-methyl]-6-(3-methoxy-propyl-methyl-amino)-4-methyl-pyridine-3-carboxylic acid amide]", "values": [{"measurement": "Emax", "value": 142, "unit": "%"}, {"measurement": "EC50", "value": 785, "unit": "nM"}]}, {"compound": "CCSc1nc(N2CCOCC2)cc(C)c1C(=O)NCc1cccc(C(F)(F)F)c1", "note": "[Example 59, 2-Ethylsulfanyl-4-methyl-6-morpholin-4-yl-N-[[3-(trifluoromethyl)phenyl]methyl]-pyridine-3-carboxylic acid amide]", "values": [{"measurement": "Emax", "value": 128, "unit": "%"}, {"measurement": "EC50", "value": 70, "unit": "nM"}]}, {"compound": "COC[C@@H]1CN(c2cc(C)c(C(=O)NCc3ccc(Cl)cc3)c(C(C)C)n2)CCO1", "note": "[Example 285, N-[(4-Chlorophenyl)-methyl]-2-isopropyl-6-[(2S)-2-(methoxymethyl)-morpholin-4-yl]-4-methyl-pyridine-3-carboxylic acid amide]", "values": [{"measurement": "Emax", "value": 126, "unit": "%"}, {"measurement": "EC50", "value": 157, "unit": "nM"}]}, {"compound": "CC(=O)N(C)c1nc(N2CCOCC2)cc(C)c1C(=O)NCc1cccc(F)c1", "note": "[Example 341, 2-(Acetyl-methyl-amino)-N-[(3-fluorophenyl)-methyl]-4-methyl-6-morpholin-4-yl-pyridine-3-carboxylic acid amide]", "values": [{"measurement": "Emax", "value": 22, "unit": "%"}]}, {"compound": "CCSc1nc(N2CCOCC2)cc(C)c1C(=O)NCc1cc(F)cc(C(F)(F)F)c1", "note": "[Example 93, 2-Ethylsulfanyl-N-[[3-fluoro-5-(trifluoromethyl)-phenyl]-methyl]-4-methyl-6-morpholin-4-yl-pyridine-3-carboxylic acid amide]", "values": [{"measurement": "Emax", "value": 103, "unit": "%"}, {"measurement": "EC50", "value": 54, "unit": "nM"}]}, {"compound": "Cc1cc(N2CCOCC2)nc(OCCF)c1C(=O)NCc1ccc(Cl)cc1", "note": "[Example 269, N-[(4-Chlorophenyl)-methyl]-2-(2-fluoro-ethoxy)-4-methyl-6-morpholin-4-yl-pyridine-3-carboxylic acid amide]", "values": [{"measurement": "Emax", "value": 119, "unit": "%"}, {"measurement": "EC50", "value": 147, "unit": "nM"}]}, {"compound": "CCSc1nc(N2CCCCC2)cc(C)c1C(=O)NCc1cccc(F)c1", "note": "[Example 32, 2-Ethylsulfanyl-N-[(3-fluorophenyl)-methyl]-4-methyl-6-piperidin-1-yl-pyridine-3-carboxylic acid amide]", "values": [{"measurement": "Emax", "value": 166, "unit": "%"}, {"measurement": "EC50", "value": 132, "unit": "nM"}]}, {"compound": "CCNc1nc(N2CCOCC2)cc(C)c1C(=O)NCc1cccc(F)c1", "note": "[Example 20, 2-Ethylamino-N-[(3-fluorophenyl)-methyl]-4-methyl-6-morpholin-4-yl-pyridine-3-carboxylic acid amide]", "values": [{"measurement": "Emax", "value": 140, "unit": "%"}, {"measurement": "EC50", "value": 782, "unit": "nM"}]}, {"compound": "COC[C@H]1COCCN1c1cc(C)c(C(=O)NCc2ccc(Cl)cc2)c(C(C)C)n1", "note": "[Example 277, N-[(4-Chlorophenyl)-methyl]-2-isopropyl-6-[(3S)-3-(methoxymethyl)-morpholin-4-yl]-4-methyl-pyridine-3-carboxylic acid amide]", "values": [{"measurement": "Emax", "value": 129, "unit": "%"}, {"measurement": "EC50", "value": 17, "unit": "nM"}]}, {"compound": "CCSc1nc(N2CCOCC2)cc(C)c1C(=O)NCCCS(C)(=O)=O", "note": "[Example 162, 2-Ethylsulfanyl-4-methyl-N-(3-methylsulfonyl-propyl)-6-morpholin-4-yl-pyridine-3-carboxylic acid amide]", "values": [{"measurement": "Emax", "value": 21, "unit": "%"}]}, {"compound": "CCOc1nc(N2CCOCC2)cc(C)c1C(=O)NCc1cc(F)cc(F)c1", "note": "[Example 90, N-[(3,5-Difluoro-phenyl)-methyl]-2-ethoxy-4-methyl-6-morpholin-4-yl-pyridine-3-carboxylic acid amide]", "values": [{"measurement": "Emax", "value": 134, "unit": "%"}, {"measurement": "EC50", "value": 122, "unit": "nM"}]}, {"compound": "CCCCCNC(=O)c1c(C)cc(N2CCOCC2)nc1SCC", "note": "[Example 81, 2-Ethylsulfanyl-4-methyl-6-morpholin-4-yl-N-pentyl-pyridine-3-carboxylic acid amide]", "values": [{"measurement": "Emax", "value": 163, "unit": "%"}, {"measurement": "EC50", "value": 662, "unit": "nM"}]}, {"compound": "CCSc1nc(N2CCOCC2)cc(C)c1C(=O)NCCC1CCCCC1", "note": "[Example 106, N-(2-Cyclohexyl-ethyl)-2-ethylsulfanyl-4-methyl-6-morpholin-4-yl-pyridine-3-carboxylic acid amide]", "values": [{"measurement": "Emax", "value": 160, "unit": "%"}, {"measurement": "EC50", "value": 172, "unit": "nM"}]}, {"compound": "CCSc1nc(N(C)C2CCOC2)cc(C)c1C(=O)NCCCC(C)(C)C", "note": "(stereo not shown) [Example 218, N-(4,4-Dimethyl-pentyl)-2-ethylsulfanyl-4-methyl-6-(methyl-tetrahydro-furan-3-yl-amino)-pyridine-3-carboxylic acid amide]", "values": [{"measurement": "Emax", "value": 194, "unit": "%"}, {"measurement": "EC50", "value": 272, "unit": "nM"}]}, {"compound": "COc1nc(N2CCCOCC2)cc(C)c1C(=O)NCc1cccc(F)c1", "note": "[Example 98, N-[(3-Fluorophenyl)-methyl]-2-methoxy-4-methyl-6-([1,4]oxazepan-4-yl)-pyridine-3-carboxylic acid amide]", "values": [{"measurement": "Emax", "value": 146, "unit": "%"}, {"measurement": "EC50", "value": 2310, "unit": "nM"}]}, {"compound": "CCSc1nc(N(C)C2CCCC(OC)C2)cc(C)c1C(=O)NCc1cccc(F)c1", "note": "(stereo not shown) [Example 307, 2-Ethylsulfanyl-N-[(3-fluorophenyl)-methyl]-6-[(3-methoxy-cyclohexyl)-methyl-amino]-4-methyl-pyridine-3-carboxylic acid amide]", "values": [{"measurement": "Emax", "value": 104, "unit": "%"}, {"measurement": "EC50", "value": 178, "unit": "nM"}]}, {"compound": "CCSc1nc(N2CCOC[C@H]2C)cc(C)c1C(=O)NCc1ccc(Cl)cc1", "note": "[Example 207, N-[(4-Chlorophenyl)-methyl]-2-ethylsulfanyl-4-methyl-6-[(3R)-3-methyl-morpholin-4-yl]-pyridine-3-carboxylic acid amide]", "values": [{"measurement": "Emax", "value": 183, "unit": "%"}, {"measurement": "EC50", "value": 69, "unit": "nM"}]}, {"compound": "CCSc1nc(N2CCOCC2)cc(C)c1C(=O)NCc1cc(F)ccc1F", "note": "[Example 101, N-[(2,5-Difluoro-phenyl)-methyl]-2-ethylsulfanyl-4-methyl-6-morpholin-4-yl-pyridine-3-carboxylic acid amide]", "values": [{"measurement": "Emax", "value": 100, "unit": "%"}, {"measurement": "EC50", "value": 133, "unit": "nM"}]}, {"compound": "CCSc1nc(N2CCOC[C@@H]2COC)cc(C)c1C(=O)NCc1ccc(F)cc1", "note": "[Example 249, 2-Ethylsulfanyl-N-[(4-fluorophenyl)-methyl]-6-[(3S)-3-(methoxymethyl)-morpholin-4-yl]-4-methyl-pyridine-3-carboxylic acid amide]", "values": [{"measurement": "Emax", "value": 129, "unit": "%"}, {"measurement": "EC50", "value": 82, "unit": "nM"}]}, {"compound": "CCSc1nc(N2CC(C)OCC2C)cc(C)c1C(=O)NCc1cccc(F)c1", "note": "(stereo not shown) [Example 240, 6-(2,5-Dimethyl-morpholin-4-yl)-2-ethylsulfanyl-N-[(3-fluorophenyl)-methyl]-4-methyl-pyridine-3-carboxylic acid amide]", "values": [{"measurement": "Emax", "value": 174, "unit": "%"}, {"measurement": "EC50", "value": 394, "unit": "nM"}]}, {"compound": "CCCCCCCNC(=O)c1c(C)cc(N2CCOCC2)nc1SCC", "note": "[Example 209, 2-Ethylsulfanyl-N-heptyl-4-methyl-6-morpholin-4-yl-pyridine-3-carboxylic acid amide]", "values": [{"measurement": "Emax", "value": 192, "unit": "%"}, {"measurement": "EC50", "value": 234, "unit": "nM"}]}]}
